25 substances from the OligoGym collection can be followed below.

HELM strings list units from the 5' end as sugar, base in round brackets, then linkage (d deoxyribose, r ribose, m 2'-O-methyl, p phosphodiester). Strings are as the collection lists them; they lack the last nucleoside at the 3' end of the tested compound. [moe] = 2'-O-(2-methoxyethyl) (MOE); [sp] = phosphorothioate linkage; [m5C] = 5-methylcytosine

For this data set, the target named is LRRK2. Put plainly: mouse, dose not given. Particulars: ASO.
For “RNA1{[moe](A)[sp].[moe](G)p.[moe](T)[sp].[moe](T)[sp].[moe]([m5C])[sp].d([m5C])[sp].d(T)[sp].d(T)[sp].d([m5C])[sp].d(A)[sp].d(G)[sp].d(T)[sp].d([m5C])[sp].d(T)[sp].d([m5C])[sp].[moe](A)p.[moe](A)p.[moe](G)[sp].[moe](G)}$$$$ (last 3' nucleoside missing)”, the 3 h FOB score came out at 7 score 0-7.
As for “RNA1{[moe](A)[sp].[moe](G)p.[moe](T)p.[moe](G)p.[moe]([m5C])[sp].d(A)[sp].d(T)[sp].d(G)[sp].d(G)[sp].d([m5C])[sp].d(A)[sp].d(T)[sp].d([m5C])[sp].d(A)[sp].d(A)[sp].[moe](A)p.[moe](A)p.[moe](A)[sp].[moe](T)}$$$$ (last 3' nucleoside missing)”, the 3 h FOB score worked out at 1 score 0-7.
The same measure for “RNA1{[moe](A)[sp].[moe](G)p.[moe](T)p.[moe](T)[sp].[moe]([m5C])[sp].d([m5C])[sp].d(T)[sp].d(T)[sp].d([m5C])[sp].d(A)[sp].d(G)[sp].d(T)[sp].d([m5C])[sp].d(T)[sp].d([m5C])[sp].[moe](A)p.[moe](A)p.[moe](G)[sp].[moe](G)}$$$$ (last 3' nucleoside missing)”: 7 score 0-7; for “RNA1{[moe](A)[sp].[moe](G)p.[moe](T)p.[moe](T)p.[moe](T)[sp].d([m5C])[sp].d(A)[sp].d(T)[sp].d(T)[sp].d([m5C])[sp].d(G)[sp].d(G)[sp].d(T)[sp].d(T)[sp].d(A)[sp].[moe](T)p.[moe](A)p.[moe](A)[sp].[moe](G)}$$$$ (last 3' nucleoside missing)”: 7 score 0-7.
The substance “RNA1{[moe](A)[sp].[moe](G)p.[moe]([m5C])p.[moe](A)p.[moe](A)[sp].d(T)[sp].d([m5C])[sp].d(A)[sp].d(T)[sp].d(T)[sp].d(G)[sp].d(G)[sp].d(T)[sp].d(A)[sp].d(G)[sp].[moe]([m5C])p.[moe](A)p.[moe](T)[sp].[moe](A)}$$$$ (last 3' nucleoside missing)” displayed a 3 h FOB score of 5 score 0-7.
Then “RNA1{[moe](A)[sp].[moe](T)p.[moe](A)[sp].[moe](A)[sp].[moe](G)[sp].d(T)[sp].d(T)[sp].d(T)[sp].d([m5C])[sp].d(A)[sp].d(T)[sp].d(T)[sp].d([m5C])[sp].d(G)[sp].d(G)[sp].[moe](T)[sp].[moe](T)p.[moe](A)[sp].[moe](T)}$$$$ (last 3' nucleoside missing)”, with 4 score 0-7; and “RNA1{[moe](A)[sp].[moe](T)p.[moe](A)[sp].[moe](G)[sp].[moe]([m5C])[sp].d(T)[sp].d(T)[sp].d([m5C])[sp].d([m5C])[sp].d(A)[sp].d([m5C])[sp].d([m5C])[sp].d(A)[sp].d([m5C])[sp].d(A)[sp].[moe](A)[sp].[moe](T)p.[moe](A)[sp].[moe](T)}$$$$ (last 3' nucleoside missing)”, with 2 score 0-7.
For “RNA1{[moe](A)[sp].[moe](T)p.[moe](G)[sp].[moe](A)[sp].[moe](G)[sp].d(T)[sp].d(G)[sp].d([m5C])[sp].d(A)[sp].d(T)[sp].d(G)[sp].d(G)[sp].d([m5C])[sp].d(A)[sp].d(T)[sp].[moe]([m5C])[sp].[moe](A)p.[moe](A)[sp].[moe](A)}$$$$ (last 3' nucleoside missing)”, the 3 h FOB score came to 6 score 0-7.
The same measure for “RNA1{[moe](A)[sp].[moe](T)p.[moe](G)[sp].[moe]([m5C])[sp].[moe](T)[sp].d(T)[sp].d(T)[sp].d([m5C])[sp].d(A)[sp].d(T)[sp].d(A)[sp].d(G)[sp].d([m5C])[sp].d(T)[sp].d(T)[sp].[moe]([m5C])[sp].[moe]([m5C])p.[moe](A)[sp].[moe]([m5C])}$$$$ (last 3' nucleoside missing)”: 2 score 0-7; for “RNA1{[moe](A)[sp].[moe](T)p.[moe](G)p.[moe]([m5C])p.[moe](A)[sp].d(G)[sp].d(T)[sp].d(T)[sp].d(T)[sp].d([m5C])[sp].d(T)[sp].d([m5C])[sp].d(T)[sp].d(A)[sp].d([m5C])[sp].[moe](T)p.[moe]([m5C])p.[moe](T)[sp].[moe](A)}$$$$ (last 3' nucleoside missing)”: 0 score 0-7; for “RNA1{[moe](A)[sp].[moe](T)p.[moe](G)p.[moe]([m5C])p.[moe](T)[sp].d(T)[sp].d(T)[sp].d([m5C])[sp].d(A)[sp].d(T)[sp].d(A)[sp].d(G)[sp].d([m5C])[sp].d(T)[sp].d(T)[sp].[moe]([m5C])p.[moe]([m5C])p.[moe](A)[sp].[moe]([m5C])}$$$$ (last 3' nucleoside missing)”: 0 score 0-7.
The same measure for “RNA1{[moe](A)[sp].[moe](T)p.[moe](T)[sp].[moe](G)[sp].[moe]([m5C])[sp].d([m5C])[sp].d(A)[sp].d([m5C])[sp].d(T)[sp].d([m5C])[sp].d(A)[sp].d(T)[sp].d(G)[sp].d(A)[sp].d(G)[sp].[moe](G)[sp].[moe](A)p.[moe]([m5C])[sp].[moe](T)}$$$$ (last 3' nucleoside missing)”: 4 score 0-7.
The same measure for “RNA1{[moe](A)[sp].[moe](T)p.[moe](T)[sp].[moe]([m5C])[sp].[moe](G)[sp].d(G)[sp].d(T)[sp].d(T)[sp].d(A)[sp].d(T)[sp].d(A)[sp].d(A)[sp].d(G)[sp].d(G)[sp].d([m5C])[sp].[moe](A)[sp].[moe]([m5C])p.[moe](A)[sp].[moe](G)}$$$$ (last 3' nucleoside missing)”: 5 score 0-7.
Substance “RNA1{[moe](A)[sp].[moe](T)p.[moe](T)p.[moe](G)p.[moe]([m5C])[sp].d(A)[sp].d(A)[sp].d(T)[sp].d(G)[sp].d(T)[sp].d(T)[sp].d(T)[sp].d([m5C])[sp].d(A)[sp].d(A)[sp].[moe](T)p.[moe](A)p.[moe](T)[sp].[moe](G)}$$$$ (last 3' nucleoside missing)” came in with a 3 h FOB score of 1 score 0-7.
As to “RNA1{[moe](A)[sp].[moe](T)p.[moe]([m5C])[sp].[moe](A)[sp].[moe](T)[sp].d(T)[sp].d(G)[sp].d([m5C])[sp].d(T)[sp].d(G)[sp].d([m5C])[sp].d(T)[sp].d([m5C])[sp].d(A)[sp].d(T)[sp].[moe](A)[sp].[moe](T)p.[moe]([m5C])[sp].[moe](T)}$$$$ (last 3' nucleoside missing)”, the 3 h FOB score was 6 score 0-7.
The same measure for “RNA1{[moe](A)[sp].[moe](T)p.[moe]([m5C])p.[moe]([m5C])p.[moe](A)[sp].d([m5C])[sp].d(A)[sp].d(T)[sp].d(T)[sp].d(T)[sp].d([m5C])[sp].d(T)[sp].d(G)[sp].d(A)[sp].d(A)[sp].[moe](T)p.[moe]([m5C])p.[moe]([m5C])[sp].[moe]([m5C])}$$$$ (last 3' nucleoside missing)”: 4 score 0-7; for “RNA1{[moe](A)[sp].[moe]([m5C])p.[moe](G)[sp].[moe]([m5C])[sp].[moe](A)[sp].d([m5C])[sp].d(T)[sp].d(T)[sp].d(A)[sp].d(A)[sp].d([m5C])[sp].d(A)[sp].d(A)[sp].d(T)[sp].d(A)[sp].[moe](T)[sp].[moe]([m5C])p.[moe](A)[sp].[moe](T)}$$$$ (last 3' nucleoside missing)”: 1 score 0-7; for “RNA1{[moe](A)[sp].[moe]([m5C])p.[moe](G)p.[moe]([m5C])p.[moe](A)[sp].d([m5C])[sp].d(T)[sp].d(T)[sp].d(A)[sp].d(A)[sp].d([m5C])[sp].d(A)[sp].d(A)[sp].d(T)[sp].d(A)[sp].[moe](T)p.[moe]([m5C])p.[moe](A)[sp].[moe](T)}$$$$ (last 3' nucleoside missing)”: 0 score 0-7.
The same measure for “RNA1{[moe](A)[sp].[moe]([m5C])p.[moe]([m5C])p.[moe]([m5C])p.[moe](T)[sp].d(T)[sp].d(T)[sp].d([m5C])[sp].d([m5C])[sp].d(A)[sp].d(T)[sp].d(G)[sp].d(T)[sp].d(G)[sp].d(A)[sp].[moe](A)p.[moe]([m5C])p.[moe](A)[sp].[moe](T)}$$$$ (last 3' nucleoside missing)”: 4 score 0-7.
For “RNA1{[moe](G)[sp].[moe](A)p.[moe](A)[sp].[moe](A)[sp].[moe](T)[sp].d(G)[sp].d(A)[sp].d(G)[sp].d(T)[sp].d(G)[sp].d([m5C])[sp].d(A)[sp].d(T)[sp].d(G)[sp].d(G)[sp].[moe]([m5C])[sp].[moe](A)p.[moe](T)[sp].[moe]([m5C])}$$$$ (last 3' nucleoside missing)”, the 3 h FOB score came out at 7 score 0-7.
Then “RNA1{[moe](G)[sp].[moe](A)p.[moe](A)[sp].[moe]([m5C])[sp].[moe](T)[sp].d(T)[sp].d(T)[sp].d(A)[sp].d(T)[sp].d(A)[sp].d(T)[sp].d(A)[sp].d(T)[sp].d(A)[sp].d(G)[sp].[moe](T)[sp].[moe](T)p.[moe](A)[sp].[moe](T)}$$$$ (last 3' nucleoside missing)”, with 2 score 0-7; and “RNA1{[moe](G)[sp].[moe](A)p.[moe](G)[sp].[moe](T)[sp].[moe](G)[sp].d([m5C])[sp].d(A)[sp].d(T)[sp].d(G)[sp].d(G)[sp].d([m5C])[sp].d(A)[sp].d(T)[sp].d([m5C])[sp].d(A)[sp].[moe](A)[sp].[moe](A)p.[moe](A)[sp].[moe](A)}$$$$ (last 3' nucleoside missing)”, with 2 score 0-7; and “RNA1{[moe](G)[sp].[moe](G)p.[moe](A)p.[moe](G)p.[moe](A)[sp].d(T)[sp].d(T)[sp].d(A)[sp].d(T)[sp].d(T)[sp].d(T)[sp].d(A)[sp].d(G)[sp].d(T)[sp].d(G)[sp].[moe]([m5C])p.[moe]([m5C])p.[moe]([m5C])[sp].[moe](A)}$$$$ (last 3' nucleoside missing)”, with 6 score 0-7.
The same measure for “RNA1{[moe](G)[sp].[moe](G)p.[moe](A)p.[moe]([m5C])p.[moe](T)[sp].d(T)[sp].d([m5C])[sp].d([m5C])[sp].d(A)[sp].d([m5C])[sp].d(A)[sp].d(T)[sp].d(T)[sp].d(A)[sp].d(T)[sp].[moe](T)p.[moe](G)p.[moe]([m5C])[sp].[moe](A)}$$$$ (last 3' nucleoside missing)”: 0 score 0-7.
Take “RNA1{[moe](G)[sp].[moe](T)p.[moe](A)p.[moe]([m5C])p.[moe]([m5C])[sp].d([m5C])[sp].d(T)[sp].d(T)[sp].d(T)[sp].d([m5C])[sp].d([m5C])[sp].d(A)[sp].d(T)[sp].d(G)[sp].d(T)[sp].[moe](G)p.[moe](A)p.[moe](A)[sp].[moe]([m5C])}$$$$ (last 3' nucleoside missing)”: the 3 h FOB score came to 1 score 0-7.
